# Assays:
# Type in all cases: cell-based
# VEGF-A = target: T1, VEGF-A (Homo sapiens, UniProt P15692); experiment: VEGF-A induced sprouting of HUVEC, spheroid-based cellular angiogenesis assay; settings: VEGF-A 25 ng/mL preincubated with compound, 24 h, read-out: VEGF-A1 IC50
# T1 construct: purchased ProQinase GmbH
# T1 sequence (P15692 27-191 isoform P15692-4): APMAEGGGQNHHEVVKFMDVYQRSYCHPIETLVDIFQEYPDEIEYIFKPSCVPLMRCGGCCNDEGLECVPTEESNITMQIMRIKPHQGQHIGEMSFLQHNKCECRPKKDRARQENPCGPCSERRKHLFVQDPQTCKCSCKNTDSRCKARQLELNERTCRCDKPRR
# Description: Aim of this in vitro method is to assess compounds effects on FGF-2, FGF-1, or VEGF-A induced sprouting of human umbilical vein endothelial cells (HUVEC) in the spheroid-based cellular angiogenesis assay. Before adding the growth factors to the cells, they were preincubated with the compound. Sunitinib was tested as a control (without preincubation).
# IC50 values determined for the tested compounds are expressed in microM [μM] and the values for the inhibition of FGF-1, FGF2 and VEGF-A induced growth (sprouting) are listed after each compound in the examples after chemical characterization.
# Sprouting test was performed on the compounds dissolved in DMSO to reach 100-fold concentrated stock solutions and dissolved in culture media. Sunitinib as reference compound was provided by ProQinase GmbH. Growth factors were purchased from rhFGF-basic (FGF-2), Peprotech, New Jersey, USA, #100-18C, Lot #0415571; rhFGF-acidic (FGF-1), Peprotech, New Jersey, USA, #100-17A, Lot #031207; hVEGF-A165 (ProQinase GmbH, Freiburg, Germany; 05.02.2010) were used for stimulation of HUVEC cells growth.
# Test system: Endothelial cells from human umbilical vein (HUVEC) from pooled donors were stored frozen with 70% medium, 20% FCS, 10% DMSO at about 1×10^6 cells/ampoule. HUVEC cells, primary human umbilical vein endothelial cells (PromoCell, Heidelberg, Germany), were used after passage 3 to 4. Morphology of the cells are adherent, cobblestone-like growing as monolayer and were cultured in endothelial cell growth and basal medium (ECGM/ECBM, PromoCell). The subculture was split 1:3; every 3-5 days, seed out at ca. 1×10^4 cells/cm^2 and incubated at 37° C. with 5% CO2 with a doubling time 24-48 hours
# Dilution of test compounds: 100× concentrated solutions (concerning to the final assay concentrations) of each test compound were prepared with the appropriate solvent (in DMSO or in water). These 100×compound solutions were further diluted in endothelial cell growth and basal medium (ECBM) 1:7.5 to get a 13.33× concentrated solution. 75 μl of the 13.33×solution was subsequently mixed with 25 μl of 40× concentrated stimulus (solved in ECBM), resulting in a 10×concentrated stimulus/compound mixture. This mixture (100 μl) was incubated for 30 min at 37° C. and then added to 900 μl gel, containing the HUVEC spheroids (resulting in the final assay concentration).
# Test method: the experiments were pursued in modification of the originally published protocol (Korff and Augustin: J Cell Sci 112: 3249-58, 1999). In brief, spheroids were prepared as described (Korff and Augustin: J Cell Biol 143: 1341-52, 1998) by pipetting 400 HUVEC in a hanging drop on plastic dishes to allow overnight spheroid aggregation. 50 HUVEC spheroids were then seeded in 0.9 ml of a collagen gel and pipetted into individual wells of a 24 well plate to allow polymerization. The test compounds were preincubated with the growth factors (FGF-1, FGF-2 or VEGF-A final concentration 25 ng/mL) in a 10-fold concentrated solution and subsequently, 100 μl of this solution was added on top of the polymerized gel. All compounds were diluted in solvent (DMSO or water) as 100×stocks first (which means 100×stocks of each final assay concentration were prepared in solvent). Subsequently, these stocks were further diluted in medium (resulting in the 13.33×stocks of each final assay concentration) with final concentrations tested: 100, 50, 25, 12.5, 6.25, 3.13 and 1.56×10^−6 M). Plates were incubated at 37° C. for 24 hours and fixed by adding 4% PFA (Roth, Karlsruhe, Germany).
# Quantification of growth factor inhibition: sprouting intensity of HUVEC spheroids treated with the growth factor and the inhibitors were quantitated by an image analysis system determining the cumulative sprout length per spheroid (CSL).
# FGF-2 = target: T2, FGF-2 (Homo sapiens, UniProt P09038); experiment: FGF-2 induced sprouting of HUVEC, spheroid-based cellular angiogenesis assay; settings: FGF-2 25 ng/mL preincubated with compound, 24 h
# T2 construct: purchased Peprotech 100-18C
# Outline: (§1)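 Spheroids of 400 HUVEC (passage 3–4), embedded in collagen gel, were stimulated with FGF-1, FGF-2 or VEGF-A (final 25 ng/mL) preincubated 30 min at 37°C with compound (final 1.56–100 μM).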
# Human neutrophils [1] = experiment: Neutrophil adhesion under static conditions; settings: fMLP-stimulated adhesion to fibrinogen; method: 40 μM and 80 μM, concentration of the value not stated
# Outline: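 Donor buffy-coat neutrophils (3×10^6/ml, PBS with Ca/Mg, 10% FCS, pH 7.2) preincubated 30 min at 37° C with 40 μM or 80 μM compound, then stimulated 1 min at 37° C with 1 nM fMLP on fibrinogen-coated glass. Adherent cells fixed and counted by computer; mean ± SD, unpaired t-test.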
# FGF-1 = target: T3, FGF-1 (Homo sapiens, UniProt P05230); experiment: FGF-1 induced sprouting of HUVEC, spheroid-based cellular angiogenesis assay; settings: FGF-1 25 ng/mL preincubated with compound, 24 h
# T3 construct: purchased Peprotech 100-17A
# Outline: as §1
# VEGFR-2 = target: T4, VEGFR-2 (Homo sapiens, UniProt P35968); experiment: VEGF-165 induced phosphorylation of VEGF-Receptor on HUVEC; settings: HUVEC preincubated 60 min, VEGF165 25 ng/mL 2 min; read-out: VEGFR-Phosphorylation inhibition IC50
# T4 construct: endogenous in cells; host or cells: primary HUVEC
# Human neutrophils [2] = experiment: Inhibition of ROS production in human neutrophils (isoluminol chemiluminescence); settings: Homo sapiens, Neutrophil, fMLP+TNF-α stimulated PMN
# Outline: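 Neutrophils from healthy-donor buffy coats (3×10^6/ml in HBSS with Ca/Mg) pre-incubated 30 min at 37° C with compound (0.1–10 μM), primed with TNF-α 20 ng/ml for 10 min, then added to fibrinogen-coated wells. Isoluminol/HRP chemiluminescence recorded every 25 sec for 250 sec after fMLP (1 μM), background-subtracted.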
# T2 sequence (P09038 134-288): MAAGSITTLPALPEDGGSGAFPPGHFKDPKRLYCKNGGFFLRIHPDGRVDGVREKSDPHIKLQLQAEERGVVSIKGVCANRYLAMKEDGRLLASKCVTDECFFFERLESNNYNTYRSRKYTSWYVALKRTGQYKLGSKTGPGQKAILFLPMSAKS
# T3 sequence (P05230 whole entry): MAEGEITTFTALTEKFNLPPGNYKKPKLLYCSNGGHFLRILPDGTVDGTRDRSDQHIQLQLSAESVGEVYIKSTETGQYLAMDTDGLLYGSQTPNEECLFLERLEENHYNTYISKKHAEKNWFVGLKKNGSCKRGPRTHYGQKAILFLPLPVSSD
# T4 sequence (P35968 20-1356): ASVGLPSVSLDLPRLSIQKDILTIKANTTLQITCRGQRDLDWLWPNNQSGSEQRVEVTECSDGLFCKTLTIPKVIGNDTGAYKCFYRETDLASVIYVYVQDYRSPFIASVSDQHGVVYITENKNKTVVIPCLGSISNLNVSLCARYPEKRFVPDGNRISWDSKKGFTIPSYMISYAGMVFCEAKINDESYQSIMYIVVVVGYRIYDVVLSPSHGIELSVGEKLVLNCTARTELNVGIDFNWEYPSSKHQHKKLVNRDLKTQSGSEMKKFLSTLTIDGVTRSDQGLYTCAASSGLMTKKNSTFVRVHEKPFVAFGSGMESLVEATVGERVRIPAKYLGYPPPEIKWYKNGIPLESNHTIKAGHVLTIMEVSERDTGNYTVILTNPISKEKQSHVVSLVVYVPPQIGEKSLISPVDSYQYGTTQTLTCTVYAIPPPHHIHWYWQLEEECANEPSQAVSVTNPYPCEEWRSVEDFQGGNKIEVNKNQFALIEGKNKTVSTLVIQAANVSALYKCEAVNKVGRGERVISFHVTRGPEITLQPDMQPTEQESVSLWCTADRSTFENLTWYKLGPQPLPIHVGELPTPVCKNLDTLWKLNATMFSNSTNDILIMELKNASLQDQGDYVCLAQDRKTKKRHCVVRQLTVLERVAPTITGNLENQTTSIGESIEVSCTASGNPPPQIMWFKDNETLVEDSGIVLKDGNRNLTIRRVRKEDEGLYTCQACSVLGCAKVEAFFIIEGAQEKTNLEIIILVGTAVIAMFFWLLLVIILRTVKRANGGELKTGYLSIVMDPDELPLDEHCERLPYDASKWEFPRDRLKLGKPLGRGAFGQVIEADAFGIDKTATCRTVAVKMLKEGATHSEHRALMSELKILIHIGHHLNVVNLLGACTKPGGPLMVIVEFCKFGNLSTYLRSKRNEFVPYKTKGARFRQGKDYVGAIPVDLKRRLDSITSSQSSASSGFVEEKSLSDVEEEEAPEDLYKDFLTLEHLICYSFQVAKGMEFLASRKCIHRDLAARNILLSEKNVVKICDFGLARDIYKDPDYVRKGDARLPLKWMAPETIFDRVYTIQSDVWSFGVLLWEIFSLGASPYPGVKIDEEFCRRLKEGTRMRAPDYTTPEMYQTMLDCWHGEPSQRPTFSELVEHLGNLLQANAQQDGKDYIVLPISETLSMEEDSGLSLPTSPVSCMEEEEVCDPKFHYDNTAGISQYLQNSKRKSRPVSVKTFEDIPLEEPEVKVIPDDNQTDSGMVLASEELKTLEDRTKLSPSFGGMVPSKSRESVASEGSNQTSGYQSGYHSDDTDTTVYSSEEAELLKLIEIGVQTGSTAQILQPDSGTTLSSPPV
Structure (SMILES),IC50 (VEGF-A) [µM],IC50 (FGF-2) [µM],Neutrophil adhesion inhibition (Human neutrophils [1]) [%],IC50 (FGF-1) [µM],IC50 (VEGFR-2) [µM],inhibition at 0.3 µM (Human neutrophils [2]) [%],IC50 (Human neutrophils [2]) [nM]
"O=C(O)c1cc(O)cc(C(=O)Nc2c(C(=O)O)cccc2C(=O)O)c1O [IIa-013a, 2-(3-carboxy-2,5-dihydroxybenzamido)isophthalic acid]",34,12,15.75,137,≥ 100,57.7,2540
"O=C(O)c1cc(O)c(C(=O)Nc2c(C(=O)O)cccc2C(=O)O)cc1O [Ia-013a, 2-(4-carboxy-2,5-dihydroxybenzamido)isophthalic acid]",17,18,27.67,29,≥ 100,38.5,2380
"CCOC(=O)c1cc(O)c(C(=O)Nc2ccccc2-c2nnn[nH]2)cc1O [Ia-001a-Tz-E1, ethyl 4-(2-(1H-tetrazol-5-yl)phenylaminocarbonyl)-2,5-dihydroxybenzoate]",≥ 200,≥ 200,98.88,≥ 200,3.8,76,–
"O=C(O)c1cc(NC(=O)c2cc(O)c(C(=O)O)cc2O)ccc1O [Ia-004a, 4-(3-carboxy-4-hydroxyphenylaminocarbonyl)-2,5-dihydroxybenzoic acid]",28,15,28.38,32,7.7,64.6,–
"CCOC(=O)c1cc(O)c(C(=O)Nc2ccccc2C(=O)OCC)cc1O [Ia-001a-E2, ethyl 4-(2-(ethoxycarbonyl)phenylaminocarbonyl)-2,5-dihydroxybenzoate]",123,≥ 200,50.5,9.2,1.25,51.5,2580
"O=C(O)c1cc(O)cc(C(=O)NCc2ccc(O)c(O)c2)c1O [IIa-035a, 3-(3,4-Dihydroxyphenylmethylaminocarbonyl)-2,5-dihydroxybenzoic acid]",45,61,36.67,16,0.52,77,1000
"O=C(O)c1cc(O)c(C(=O)Nc2ccc(O)cc2C(=O)O)cc1O [Ia-006a, 4-(2-carboxy-4-hydroxyphenylaminocarbonyl)-2,5-dihydroxybenzoic acid]",≥ 100,–,25.33,89,11.8,60.6,1200
"COC(=O)c1cc(NC(=O)c2cc(O)c(C(=O)Nc3ccccc3-c3nnn[nH]3)cc2O)ccc1O [Ic-001a-Tz/004a-E1, methyl 5-(4-(2-(1H-tetrazol-5-yl)phenylaminocarbonyl)-2,5-dihydroxybenzamido)-2-hydroxybenzoate]",35,–,97.56,104,0.1,74,–
"O=C(O)c1cc(O)c(C(=O)NC(Cc2ccc(O)c(O)c2)C(=O)O)cc1O (stereo not drawn) [Ia-035a-3, 4-(1-Carboxy-2-(3,4-dihydroxyphenyl)ethylaminocarbonyl)-2,5-dihydroxybenzoic acid]",198,207,22,34,10,79.6,660
"O=C(O)c1cc(O)c(C(=O)NCc2ccccc2C(=O)O)cc1O [Ia-053a, 4-(2-Carboxyphenylmethylaminocarbonyl)-2,5-dihydroxybenzoic acid]",210,124,18.67,≥ 150,≥ 100,52.9,2500
"O=C(O)c1cc(O)c(C(=O)Nc2cccc(C(=O)O)c2C(=O)O)cc1O [Ia-011a, 3-(4-carboxy-2,5-dihydroxybenzamido)phthalic acid]",≥ 200,110,42.32,35,≥ 100,57.7,–
"O=C(O)c1ccc(C(=O)O)c(NC(=O)c2cc(O)c(C(=O)O)cc2O)c1 [Ia-012a, 2-(4-carboxy-2,5-dihydroxybenzamido)terephthalic acid]",30,36,28.5,38,≥ 100,59.5,1850
"O=C(O)c1cc(O)c(CSCc2cc(O)c(C(=O)O)cc2O)cc1O [IIIc-058a, 4-((2,5-Dihydroxy-4-carboxyphenyl)methylthiomethyl)-2,5-dihydroxybenzoic acid]",124,12,23,12,0.29,61.2,1170
"O=C(O)Cc1ccccc1NC(=O)c1cc(O)c(C(=O)O)cc1O [Ia-034a, 4-(2-(carboxymethyl)phenylaminocarbonyl)-2,5-dihydroxybenzoic acid]",102,14,15,79,≥ 100,49.1,2280
"O=C(O)c1cc(O)c(C(=O)Nc2cccc(-c3nnn[nH]3)c2)cc1O [Ia-002a-Tz, 4-(3-(1H-tetrazol-5-yl)phenyl-aminocarbonyl)-2,5-dihydroxybenzoic acid]",57,53,38.5,10,≥ 100,66.6,1860
